Entries after “also recorded” stand apart in the source; their conditions may differ.
How the values were obtained:
Cathepsin V [1] = molecular target: T1, Cathepsin V (Homo sapiens, UniProt O60911); experiment: Determination of relative inhibition, substrate Z-Phe-Arg-AMC; type: biochemical; settings: inhibitor 50 μM; substrate 2 μM; mean ± SD (n = 2); read-out: Cathepsin V Ri (%) relative inhibition
T1 construct: made in house; host or cells: Pichia pastoris
Method: (§1) Human recombinant cathepsin V was expressed in Pichia Pastoris, and human recombinant cathepsin L was expressed in Escherichia coli, as reported, [51]. To determine the activities of cathepsins V and L, 100 mM acetate buffer (pH 5.5), containing 0.1 % PEG 8000 (Sigma-Aldrich, St. Louis, MO, USA), 5 mM cysteine, and 1.5 mM EDTA was used. Prior to the assay, the enzyme was activated in the assay buffer for 5 min at 37 °C.
(§2) The effect of the inhibitors on cathepsin V and L activity was determined using the substrate Z-Phe-Arg-AMC (Bachem, Bubendorf, Switzerland). The reaction was initiated by adding 90 μL of the activated enzyme (final concentration 2.5 ng/mL and 0.02 nM for cathepsins V and L, respectively) to the wells of a black microtiter plate containing 5 μL of substrate (with a final concentration 2 μM) and 5 μL of inhibitor (with a final concentration of 50 μM). The formation of fluorescent degradation products during the reaction was monitored continuously at 460 nm ± 10 nm with excitation at 380 nm ± 20 nm at 37 °C on a Tecan Infinite M1000 (Mannedorf, Switzerland) spectrofluorometer. All assay mixtures contained 5 % (v/v) DMSO. To prevent false-positive inhibition due to the formation of compound aggregates, 0.01 % Triton X-100 was used. All measurements were performed in triplicate and repeated at least twice. Relative inhibition was calculated using the following equation: relative inhibition (%) = 100(1- vi/vo), where vi and vo denote the reaction velocities in the presence and absence of the inhibitor, respectively.

[2] = molecular target: T2, human recombinant cathepsin L (Homo sapiens, UniProt P07711); experiment: as above; type: biochemical; settings: inhibitor 50 μM; substrate 2 μM; mean ± SD (n = 2); read-out: Cathepsin L Ri (%) relative inhibition
T2 construct: made in house; host or cells: Escherichia coli
Method: as §1, §2

Cathepsin V [3] = molecular target: T1, Cathepsin V; experiment: Determination of binding reversibility (dilution method); type: biochemical; settings: inhibitor 100 μM, cathepsin V 500 ng/ml
Method: Binding reversibility was determined according to the dilution method, which measures the recovery of enzymatic activity after rapid dilution of the enzyme-inhibitor complex. Cathepsin V (500 ng/ml) was incubated in the assay buffer with the inhibitor (100 μM). Half of the reaction mixture was immediately diluted 100-fold with the assay buffer and added to the wells of a black microplate containing 5 μL of substrate (at a final concentration of 2 μM), and the activity was measured. The other half of the reaction mixture was incubated for 2 h before it was diluted 100-fold, and then the activity was measured. The assay was performed in triplicates and repeated at least two times.

[4] = Aqueous stability (HPLC-based assay); type: physicochemical; settings: 50 μM, 60 h
Method: HPLC analyses were performed as described under the Compound characterization section. The method used a Waters Acquity UPLC® HSS C18 SB column (2.1 × 50 mm, 1.8 µm) thermostated at 40 °C, injection volume, 10 µL; flow rate, 0.3 mL/min; detector λ, 280 nm; mobile phase A: 0.1 % TFA (v/v) in water; mobile phase B: MeCN. Method: 0–9 min, 5 % – 95 % B; 9 – 11 min, 95 % B; 11 – 11.5 min, 95 % - 5% B.
Compound 7 stock solution (1 mM) was prepared in DMSO, while internal standard (caffeine, 1 mM) was dissolved in buffer (PBS pH 7.4). The aqueous stability solution was prepared by mixing 1400 µL buffer, 400 µL MeCN, 100 µL internal standard stock solution, and 100 µL compound stock solution in a HPLC vial to give 50 μM compound, 50 μM internal standard, 20 % MeCN, and 5 % DMSO in buffer, which was injected immediately and then at hourly intervals for 60 h while being incubated at 37 °C. The analyte areas under curve (AUCs) were normalized on internal standard AUCs.

MCF7 cells = experiment: Proliferation assay (CFSE-labeled cells, flow cytometry); type: cell-based, human; settings: 72 h
Method: To assess the effect of cathepsin V inhibitors on cell proliferation, MCF7 cells were fluorescently labeled with carboxyfluorescein succinimidyl ester (CFSE; ImmunoChemistry Technologies, Bloomington, MN, USA) in PBS for 15 min at room temperature according to the manufacturer’s instructions. Cells were washed with PBS, resuspended in complete medium, seeded (at 4 × 10^4 cells/well) into 24-well plates, and allowed to adhere overnight. Cells were then treated with the following inhibitors: compound 7 (10 μM), E-64d (10 μM), CLIK-148 (1 μM), LHVS (10 nM), pepstatin (20 μM), their combinations, or DMSO (0.1 %) in 500 μL of medium for 72 h at 37 °C. To prepare cells for flow cytometry, cells were detached and transferred to round-bottomed polystyrene tubes and washed with PBS. Before measurement, 7-aminoactinomycin D (7-AAD; ImmunoChemistry Technologies, Bloomington, MN, USA) was added according to the manufacturer’s instructions to exclude dead cells. Therefore, the green fluorescence arising from CFSE was monitored only for viable cells. The measurement was performed using a FACSCalibur instrument (BD Biosciences, San Jose, CA, USA).

NK-92 cells = experiment: Cell viability assay (MTS); type: cell-based; settings: up to 10 μM, 24 h
Method: (§3) The effect of compound 7 on the viability of NK-92, TALL-104, and K-562 cells was evaluated using the MTS [3-(4,5-dimethylthiazol-2-yl)-5-(3-carboxymetoxyphenyl)-2-(4-sulfophenyl)–2H-tetrazolium] colorimetric assay (CellTiter 96 Aqueous One Solution Cell Proliferation Assay, Promega, Madison, WI, USA). NK-92, TALL-104, and K-562 cells were seeded at 2.5 × 10^4, 1 × 10^5, and 1 × 10^4 cells/well, respectively, into a 96-well microplate and treated with inhibitors (2.5, 5, or 10 µM) or DMSO (0.1 %) for 24 h. After incubation, 10 µL of the reagent MTS was added to the wells, and the absorbance of formazan was measured at 492 nm on a Tecan Infinite M1000 (Mannedorf, Switzerland). Cell viability (%) was expressed as the ratio between absorbance in the presence of the compounds and in the presence of DMSO. All assays were performed in quadruplicate and repeated at least twice.

TALL-104 cells = experiment: Cell viability assay (MTS); type: cell-based; settings: up to 10 μM, 24 h
Method: as §3

T1 sequence (O60911 114-334): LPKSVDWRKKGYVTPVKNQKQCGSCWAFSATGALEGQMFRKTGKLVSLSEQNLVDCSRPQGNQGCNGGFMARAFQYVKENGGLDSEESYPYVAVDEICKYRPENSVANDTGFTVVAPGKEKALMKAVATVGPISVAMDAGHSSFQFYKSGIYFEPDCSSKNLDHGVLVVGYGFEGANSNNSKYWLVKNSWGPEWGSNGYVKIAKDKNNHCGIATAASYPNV
T2 sequence (P07711 114-333): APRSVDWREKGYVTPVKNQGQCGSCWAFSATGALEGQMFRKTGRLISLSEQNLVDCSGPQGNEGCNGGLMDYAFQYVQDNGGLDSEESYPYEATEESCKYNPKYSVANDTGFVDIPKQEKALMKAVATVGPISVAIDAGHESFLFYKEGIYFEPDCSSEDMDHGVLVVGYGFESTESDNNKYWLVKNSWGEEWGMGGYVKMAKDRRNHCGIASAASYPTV

## O=C(NCc1cccc2ccccc12)NCC1CCN(C(=O)Oc2ccccc2)CC1 [Compound 7, Phenyl 4-((3-(naphthalen-1-ylmethyl)ureido)methyl)piperidine-1-carboxylate]
Cathepsin V [1]
  inhibition at 50 µM: > 20%
[2]
  inhibition at 50 µM: 12.1 ± 1.8%
Cathepsin V [3]
  binding reversibility: cathepsin V activity after 2 h incubation and 100-fold rapid dilution: reversible; also recorded: restored
[4]; PBS pH 7.4, 20 % MeCN, 5 % DMSO, 37 °C
  aqueous stability: stable for days
[4]; PBS pH 7.4, 37 °C, smaller than experimental error
  difference between the last and the first timepoint (normalized AUC): < 2%
MCF7 cells; 10 μM, higher CFSE = less proliferation
  increase of fluorescence intensity of CFSE-labeled cells compared to control cells: 50.6 ± 5.1%
MCF7 cells; compound 7 10 μM + CLIK-148 1 μM + LHVS 10 nM
  increase of relative CFSE fluorescence intensity, co-treatment with CLIK-148, LHVS, and compound 7 together: 46.1 ± 5.2%
NK-92 cells
  viability of NK-92 cells: not significantly reduced
TALL-104 cells
  viability of TALL-104 cells: not significantly reduced

Source: article PMC9459403, “New inhibitors of cathepsin V impair tumor cell proliferation and elastin degradation and increase immune cell cytotoxicity” (Computational and Structural Biotechnology Journal, 2022)
